In data set [1] the target is Protein disulfide-isomerase (Homo sapiens, UniProt P07237). Kind of data set: inhibition of PDI-driven insulin aggregation – biochemical, turbidity, absorbance, cherry-picked samples, dose response (AID 602350). It is filed as functional.
Data set [2] deals with T1, Neuropeptide Y receptor type 1 (Homo sapiens, UniProt P25929).
T1 sequence (P25929 whole entry): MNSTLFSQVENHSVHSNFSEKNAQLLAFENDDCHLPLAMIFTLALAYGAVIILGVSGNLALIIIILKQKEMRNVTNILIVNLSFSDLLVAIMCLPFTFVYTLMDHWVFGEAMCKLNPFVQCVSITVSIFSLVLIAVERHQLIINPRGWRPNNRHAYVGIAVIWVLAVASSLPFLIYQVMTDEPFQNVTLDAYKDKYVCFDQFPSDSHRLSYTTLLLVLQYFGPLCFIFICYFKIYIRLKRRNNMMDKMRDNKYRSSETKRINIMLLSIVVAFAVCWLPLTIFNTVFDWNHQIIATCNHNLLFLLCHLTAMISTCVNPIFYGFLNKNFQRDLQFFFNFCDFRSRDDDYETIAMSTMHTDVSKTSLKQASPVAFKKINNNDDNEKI
Type of data set: functional.

In data set [3] the target is T2, High affinity choline transporter 1 (Homo sapiens, UniProt Q9GZV3).
T2 sequence (Q9GZV3 whole entry): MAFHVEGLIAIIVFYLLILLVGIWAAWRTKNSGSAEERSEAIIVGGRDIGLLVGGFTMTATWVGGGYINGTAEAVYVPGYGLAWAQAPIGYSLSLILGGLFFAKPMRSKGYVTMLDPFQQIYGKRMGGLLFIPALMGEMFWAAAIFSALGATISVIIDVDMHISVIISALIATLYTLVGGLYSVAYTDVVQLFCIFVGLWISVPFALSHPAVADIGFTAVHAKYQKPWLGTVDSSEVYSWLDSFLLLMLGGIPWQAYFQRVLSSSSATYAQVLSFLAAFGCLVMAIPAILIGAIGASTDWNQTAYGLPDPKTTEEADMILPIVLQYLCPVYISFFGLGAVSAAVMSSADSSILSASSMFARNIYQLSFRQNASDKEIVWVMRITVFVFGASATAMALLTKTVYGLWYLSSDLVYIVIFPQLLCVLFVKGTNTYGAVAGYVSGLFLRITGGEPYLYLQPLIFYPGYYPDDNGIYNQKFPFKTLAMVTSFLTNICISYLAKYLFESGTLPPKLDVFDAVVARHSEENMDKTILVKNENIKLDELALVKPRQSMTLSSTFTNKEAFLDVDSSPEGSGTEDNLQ
The data set can be described thus: human choline transporter potentiators, potency – cell-based, 10-point CRC, membrane potential dye, dose response (AID 602376). Type of data set: functional.

The target in data set [4] is T3, Neuropeptide Y receptor type 2 (Homo sapiens, UniProt P49146).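 Further: HEK293 cells expressing the receptor and a CNG channel; stimulus was NPY near EC95 followed by isoproterenol to raise cAMP; antagonist potency measured as restoring cAMP signal that NPY suppresses.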
T3 sequence (P49146 whole entry): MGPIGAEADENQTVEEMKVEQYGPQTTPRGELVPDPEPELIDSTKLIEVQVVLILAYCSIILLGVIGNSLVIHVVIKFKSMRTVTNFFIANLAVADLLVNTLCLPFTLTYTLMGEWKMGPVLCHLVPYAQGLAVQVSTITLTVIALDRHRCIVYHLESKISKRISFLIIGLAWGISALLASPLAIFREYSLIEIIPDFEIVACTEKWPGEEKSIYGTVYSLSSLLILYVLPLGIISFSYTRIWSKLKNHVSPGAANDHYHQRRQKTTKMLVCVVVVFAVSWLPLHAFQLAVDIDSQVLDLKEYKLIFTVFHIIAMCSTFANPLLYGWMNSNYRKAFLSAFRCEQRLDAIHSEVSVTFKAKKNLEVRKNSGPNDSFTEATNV
Type of data set: functional, cell-based.

Data set [5] concerns the target Vascular endothelial growth factor receptor 2 (Homo sapiens, UniProt P35968). It is filed as functional.
In the next data set the target is Aurora kinase B (Homo sapiens, UniProt Q96GD4). It is filed as functional.
The target of another data set is Cytochrome P450 2C9 (Homo sapiens, UniProt P11712).
The next data set has as its target Cytochrome P450 2D6 (Homo sapiens, UniProt P10635).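 Further: CYP2D6 member of a cytochrome P450 panel assay.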
Data set [6] addresses Glycogen synthase kinase-3 beta (Homo sapiens, UniProt P49841). The data set can be described thus: Inhibition of Human GSK-3 beta Activity Measured in Biochemical System Using Microfluidics - 2063-05_Inhibitor_Dose_DryPowder_Activity_Set2. [Related pubchem assays (depositor defined):AID2709].
The target of data set [7] is Glycogen synthase kinase-3 alpha (Homo sapiens, UniProt P49840). The data set can be described thus: Inhibition of Human GSK-3 alpha Activity Measured in Biochemical System Using Microfluidics - 2063-06_Inhibitor_Dose_DryPowder_Activity_Set2. [Related pubchem assays (depositor defined):AID2709].
The target in another data set is T4, Caspase-3 (Homo sapiens, UniProt P42574).
T4 sequence (P42574 whole entry): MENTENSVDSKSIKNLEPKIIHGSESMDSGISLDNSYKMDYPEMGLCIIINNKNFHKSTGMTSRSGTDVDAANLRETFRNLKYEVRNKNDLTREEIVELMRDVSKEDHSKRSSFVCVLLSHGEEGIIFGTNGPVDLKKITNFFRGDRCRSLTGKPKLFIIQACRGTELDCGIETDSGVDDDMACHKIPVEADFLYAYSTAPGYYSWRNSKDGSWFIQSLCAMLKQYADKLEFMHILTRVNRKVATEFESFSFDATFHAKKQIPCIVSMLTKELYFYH
Kind of data set: inhibition of recombinant caspase-3 activity – biochemical, luminescence, set 2, selectivity assay for SENP protease inhibitor project, SAR follow-up (AID 588599). It is filed as functional.

Data set [8] deals with T5, Sentrin-specific protease 6 (Homo sapiens, UniProt Q9GZR1).
T5 sequence (Q9GZR1 whole entry): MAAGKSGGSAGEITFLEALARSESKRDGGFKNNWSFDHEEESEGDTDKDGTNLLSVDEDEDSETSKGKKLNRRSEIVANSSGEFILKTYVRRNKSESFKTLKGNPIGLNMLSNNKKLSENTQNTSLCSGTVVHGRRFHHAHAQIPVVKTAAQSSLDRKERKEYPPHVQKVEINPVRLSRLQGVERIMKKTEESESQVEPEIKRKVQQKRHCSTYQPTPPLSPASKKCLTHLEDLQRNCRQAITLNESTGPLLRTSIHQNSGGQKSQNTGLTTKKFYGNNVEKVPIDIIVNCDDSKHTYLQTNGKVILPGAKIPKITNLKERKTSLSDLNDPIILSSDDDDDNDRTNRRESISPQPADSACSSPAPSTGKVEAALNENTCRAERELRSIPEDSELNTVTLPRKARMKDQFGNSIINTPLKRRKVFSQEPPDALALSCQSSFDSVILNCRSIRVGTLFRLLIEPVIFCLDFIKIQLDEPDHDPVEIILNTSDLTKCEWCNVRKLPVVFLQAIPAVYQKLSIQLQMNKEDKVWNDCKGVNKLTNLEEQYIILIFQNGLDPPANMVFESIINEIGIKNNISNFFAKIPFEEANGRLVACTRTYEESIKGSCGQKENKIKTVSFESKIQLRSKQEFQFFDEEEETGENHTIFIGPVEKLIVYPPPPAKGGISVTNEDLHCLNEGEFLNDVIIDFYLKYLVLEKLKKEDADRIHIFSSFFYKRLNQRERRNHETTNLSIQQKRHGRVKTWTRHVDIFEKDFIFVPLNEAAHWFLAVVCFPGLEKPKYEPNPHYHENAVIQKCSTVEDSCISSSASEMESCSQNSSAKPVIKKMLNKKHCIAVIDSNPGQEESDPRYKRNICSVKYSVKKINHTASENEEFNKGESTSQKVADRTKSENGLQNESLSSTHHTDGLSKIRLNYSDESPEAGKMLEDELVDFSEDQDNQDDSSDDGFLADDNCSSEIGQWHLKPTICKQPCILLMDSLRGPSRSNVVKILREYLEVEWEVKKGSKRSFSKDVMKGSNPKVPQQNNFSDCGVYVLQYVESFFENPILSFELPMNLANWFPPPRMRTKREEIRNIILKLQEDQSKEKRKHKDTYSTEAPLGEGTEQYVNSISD
The data set can be described thus: inhibition of human SENP6 catalytic domain – biochemical, luminescence, set 2, SAR follow-up (AID 588598). It is filed as functional.

In data set [9] the target is T6, Sentrin-specific protease 8 (Homo sapiens, UniProt Q96LD8).
T6 sequence (Q96LD8 whole entry): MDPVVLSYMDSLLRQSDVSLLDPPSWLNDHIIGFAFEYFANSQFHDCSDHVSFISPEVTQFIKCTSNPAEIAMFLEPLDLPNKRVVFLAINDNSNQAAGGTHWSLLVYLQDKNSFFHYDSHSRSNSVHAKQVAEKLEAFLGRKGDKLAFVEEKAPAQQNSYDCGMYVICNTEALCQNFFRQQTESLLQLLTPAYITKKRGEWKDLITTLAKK
Kind of data set: inhibition of sentrin protease 8 – biochemical, luminescence, set 2, SAR follow-up (AID 588601). Type of data set: functional.

Data set [10] deals with T7, Sentrin-specific protease 7 (Homo sapiens, UniProt Q9BQF6).
T7 sequence (Q9BQF6 whole entry): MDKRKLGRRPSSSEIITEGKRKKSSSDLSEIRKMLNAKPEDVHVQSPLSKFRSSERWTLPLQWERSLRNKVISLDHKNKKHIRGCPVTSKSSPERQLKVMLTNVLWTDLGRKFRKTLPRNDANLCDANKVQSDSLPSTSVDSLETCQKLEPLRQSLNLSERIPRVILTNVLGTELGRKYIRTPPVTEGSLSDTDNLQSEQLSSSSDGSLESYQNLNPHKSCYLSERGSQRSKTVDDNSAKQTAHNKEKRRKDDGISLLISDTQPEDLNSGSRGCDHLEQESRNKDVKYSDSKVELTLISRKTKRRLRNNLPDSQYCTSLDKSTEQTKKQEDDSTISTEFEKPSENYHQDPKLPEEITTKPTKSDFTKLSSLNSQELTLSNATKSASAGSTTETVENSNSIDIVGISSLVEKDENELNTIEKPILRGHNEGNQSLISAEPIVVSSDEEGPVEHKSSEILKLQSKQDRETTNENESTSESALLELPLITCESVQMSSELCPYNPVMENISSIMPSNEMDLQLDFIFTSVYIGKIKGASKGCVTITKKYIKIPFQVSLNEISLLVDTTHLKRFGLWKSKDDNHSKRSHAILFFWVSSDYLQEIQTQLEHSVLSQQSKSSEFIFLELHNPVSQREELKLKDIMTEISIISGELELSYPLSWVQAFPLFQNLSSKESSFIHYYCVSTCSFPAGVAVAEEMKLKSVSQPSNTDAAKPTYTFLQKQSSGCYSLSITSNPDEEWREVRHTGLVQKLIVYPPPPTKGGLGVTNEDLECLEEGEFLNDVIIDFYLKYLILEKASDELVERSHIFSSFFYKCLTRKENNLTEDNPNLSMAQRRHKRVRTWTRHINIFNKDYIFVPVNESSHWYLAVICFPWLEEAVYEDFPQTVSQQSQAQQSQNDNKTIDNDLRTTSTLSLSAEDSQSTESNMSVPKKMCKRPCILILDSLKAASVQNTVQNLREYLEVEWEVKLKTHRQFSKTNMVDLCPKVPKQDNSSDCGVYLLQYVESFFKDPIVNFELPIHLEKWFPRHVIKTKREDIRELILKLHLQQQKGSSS
Kind of data set: inhibition of human SENP7 cleavage activity – biochemical, luminescence, set 2, SAR follow-up (AID 588600). Type of data set: functional.

Calls of active or inactive are those of the source.

Sequence of Cytochrome P450 2C9 (P11712 whole entry): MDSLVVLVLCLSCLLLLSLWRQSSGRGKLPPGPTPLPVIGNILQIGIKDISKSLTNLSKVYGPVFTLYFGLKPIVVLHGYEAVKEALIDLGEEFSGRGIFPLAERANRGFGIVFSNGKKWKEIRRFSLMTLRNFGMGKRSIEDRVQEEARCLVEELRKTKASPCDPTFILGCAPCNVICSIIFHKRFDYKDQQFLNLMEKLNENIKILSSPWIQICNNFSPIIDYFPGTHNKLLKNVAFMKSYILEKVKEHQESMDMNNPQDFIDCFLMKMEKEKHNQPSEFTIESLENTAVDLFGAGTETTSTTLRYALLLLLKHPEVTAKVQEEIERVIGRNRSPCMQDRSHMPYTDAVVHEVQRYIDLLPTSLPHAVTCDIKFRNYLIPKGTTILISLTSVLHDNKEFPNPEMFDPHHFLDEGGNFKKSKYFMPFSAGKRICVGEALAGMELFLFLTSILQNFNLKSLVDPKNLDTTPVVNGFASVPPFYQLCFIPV
Sequence of Vascular endothelial growth factor receptor 2 (P35968 whole entry): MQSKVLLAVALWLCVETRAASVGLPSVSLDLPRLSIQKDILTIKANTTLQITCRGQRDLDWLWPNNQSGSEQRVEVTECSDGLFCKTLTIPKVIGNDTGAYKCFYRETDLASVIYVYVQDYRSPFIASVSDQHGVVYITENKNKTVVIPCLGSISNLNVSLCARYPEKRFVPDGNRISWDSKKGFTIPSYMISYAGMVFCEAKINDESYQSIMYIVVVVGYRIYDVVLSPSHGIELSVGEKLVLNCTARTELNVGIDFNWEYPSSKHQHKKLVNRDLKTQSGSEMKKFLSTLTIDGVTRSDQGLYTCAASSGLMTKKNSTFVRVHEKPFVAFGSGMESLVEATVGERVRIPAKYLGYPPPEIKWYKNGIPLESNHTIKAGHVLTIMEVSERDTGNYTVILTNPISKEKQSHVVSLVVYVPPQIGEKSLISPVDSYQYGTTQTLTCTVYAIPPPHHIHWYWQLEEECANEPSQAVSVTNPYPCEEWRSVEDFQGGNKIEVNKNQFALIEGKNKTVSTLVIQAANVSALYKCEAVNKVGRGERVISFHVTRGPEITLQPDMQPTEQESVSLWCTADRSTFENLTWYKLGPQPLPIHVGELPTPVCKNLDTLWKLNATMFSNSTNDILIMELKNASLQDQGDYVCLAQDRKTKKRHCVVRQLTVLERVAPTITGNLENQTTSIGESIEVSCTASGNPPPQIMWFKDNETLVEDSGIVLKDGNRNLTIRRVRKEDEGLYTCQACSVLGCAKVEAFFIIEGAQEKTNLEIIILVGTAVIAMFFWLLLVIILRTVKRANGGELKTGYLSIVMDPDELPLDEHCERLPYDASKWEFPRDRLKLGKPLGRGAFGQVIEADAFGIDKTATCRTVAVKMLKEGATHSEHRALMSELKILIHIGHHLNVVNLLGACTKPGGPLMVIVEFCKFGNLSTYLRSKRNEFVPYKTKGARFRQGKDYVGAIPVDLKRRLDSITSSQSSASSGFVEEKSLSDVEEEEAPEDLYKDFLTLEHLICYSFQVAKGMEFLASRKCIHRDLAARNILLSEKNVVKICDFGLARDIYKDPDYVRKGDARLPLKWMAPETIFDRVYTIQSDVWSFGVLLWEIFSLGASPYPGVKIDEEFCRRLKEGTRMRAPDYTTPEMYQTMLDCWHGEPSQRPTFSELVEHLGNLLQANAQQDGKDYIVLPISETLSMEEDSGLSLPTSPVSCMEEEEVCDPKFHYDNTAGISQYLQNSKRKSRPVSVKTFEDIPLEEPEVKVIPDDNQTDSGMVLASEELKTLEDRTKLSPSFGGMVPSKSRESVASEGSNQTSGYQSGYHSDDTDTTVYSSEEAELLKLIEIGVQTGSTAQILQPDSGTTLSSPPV
Sequence of Glycogen synthase kinase-3 beta (P49841 whole entry): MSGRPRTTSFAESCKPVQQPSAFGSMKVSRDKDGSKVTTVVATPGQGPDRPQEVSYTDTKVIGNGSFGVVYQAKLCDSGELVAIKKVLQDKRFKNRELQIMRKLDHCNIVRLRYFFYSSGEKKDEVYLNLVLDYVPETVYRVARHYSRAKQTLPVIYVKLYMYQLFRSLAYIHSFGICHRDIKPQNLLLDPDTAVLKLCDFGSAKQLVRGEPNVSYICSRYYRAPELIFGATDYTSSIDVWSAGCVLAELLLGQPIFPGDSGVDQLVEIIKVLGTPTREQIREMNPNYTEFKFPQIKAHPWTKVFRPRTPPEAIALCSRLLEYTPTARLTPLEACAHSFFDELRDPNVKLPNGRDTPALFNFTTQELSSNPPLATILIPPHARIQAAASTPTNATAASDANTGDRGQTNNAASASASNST
Sequence of Glycogen synthase kinase-3 alpha (P49840 whole entry): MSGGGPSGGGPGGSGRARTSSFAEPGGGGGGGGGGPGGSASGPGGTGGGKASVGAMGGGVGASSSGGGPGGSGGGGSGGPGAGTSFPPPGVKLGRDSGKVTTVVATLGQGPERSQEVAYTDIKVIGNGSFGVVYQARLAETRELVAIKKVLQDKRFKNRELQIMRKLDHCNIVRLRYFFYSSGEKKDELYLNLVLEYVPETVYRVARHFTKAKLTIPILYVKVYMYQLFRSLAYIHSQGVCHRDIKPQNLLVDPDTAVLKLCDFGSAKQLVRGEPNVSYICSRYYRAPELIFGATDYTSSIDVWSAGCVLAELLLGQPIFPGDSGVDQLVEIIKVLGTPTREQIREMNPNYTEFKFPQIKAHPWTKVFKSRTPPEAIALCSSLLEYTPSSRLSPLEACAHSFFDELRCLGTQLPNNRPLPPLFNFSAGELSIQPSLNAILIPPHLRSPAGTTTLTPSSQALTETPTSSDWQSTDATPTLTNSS
Sequence of Protein disulfide-isomerase (P07237 whole entry): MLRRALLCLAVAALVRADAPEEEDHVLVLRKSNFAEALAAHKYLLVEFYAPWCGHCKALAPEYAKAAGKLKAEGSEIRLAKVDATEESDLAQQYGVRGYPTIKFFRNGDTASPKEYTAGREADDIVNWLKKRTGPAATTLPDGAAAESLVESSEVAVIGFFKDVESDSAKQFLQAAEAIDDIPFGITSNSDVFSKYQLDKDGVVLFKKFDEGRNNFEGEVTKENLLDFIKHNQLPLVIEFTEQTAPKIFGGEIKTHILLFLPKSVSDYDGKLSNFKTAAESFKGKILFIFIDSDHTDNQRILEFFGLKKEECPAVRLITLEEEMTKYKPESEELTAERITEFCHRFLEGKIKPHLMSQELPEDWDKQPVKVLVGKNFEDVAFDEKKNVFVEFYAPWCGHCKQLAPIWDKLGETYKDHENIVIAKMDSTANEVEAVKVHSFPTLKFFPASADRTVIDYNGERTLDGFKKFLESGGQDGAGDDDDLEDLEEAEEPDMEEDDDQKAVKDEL
Sequence of Aurora kinase B (Q96GD4 whole entry): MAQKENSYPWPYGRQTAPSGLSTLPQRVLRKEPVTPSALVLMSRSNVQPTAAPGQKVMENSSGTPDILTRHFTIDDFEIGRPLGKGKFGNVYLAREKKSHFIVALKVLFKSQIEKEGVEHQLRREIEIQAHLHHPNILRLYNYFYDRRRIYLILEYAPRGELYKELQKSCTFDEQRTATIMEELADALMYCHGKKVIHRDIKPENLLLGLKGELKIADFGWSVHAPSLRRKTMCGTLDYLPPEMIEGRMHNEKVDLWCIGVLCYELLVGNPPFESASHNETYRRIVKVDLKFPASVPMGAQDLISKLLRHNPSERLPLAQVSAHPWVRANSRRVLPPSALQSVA
Sequence of Cytochrome P450 2D6 (P10635 whole entry): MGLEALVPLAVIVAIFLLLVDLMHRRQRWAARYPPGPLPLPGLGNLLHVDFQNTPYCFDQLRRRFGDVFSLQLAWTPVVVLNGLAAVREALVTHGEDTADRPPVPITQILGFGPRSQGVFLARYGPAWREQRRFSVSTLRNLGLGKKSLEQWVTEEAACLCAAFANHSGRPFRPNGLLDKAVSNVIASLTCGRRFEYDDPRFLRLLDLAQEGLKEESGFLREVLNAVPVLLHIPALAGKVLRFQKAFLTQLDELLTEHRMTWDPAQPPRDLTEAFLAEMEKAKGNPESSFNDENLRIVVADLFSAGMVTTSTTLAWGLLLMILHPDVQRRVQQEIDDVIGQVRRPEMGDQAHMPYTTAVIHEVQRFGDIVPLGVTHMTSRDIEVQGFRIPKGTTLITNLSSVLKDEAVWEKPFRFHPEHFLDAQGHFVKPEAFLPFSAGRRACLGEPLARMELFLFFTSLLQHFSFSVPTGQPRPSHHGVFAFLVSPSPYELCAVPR

Usually AC50 stands for the concentration giving half of the maximal activity seen. Turning to `C[C@@H]1O[C@@H](O[C@@H]2C(=O)c3c(O)cc(O)cc3O[C@H]2c2ccc(O)c(O)c2)[C@H](O)[C@H](O)[C@H]1O`, in [1], the half-maximal activity concentration (AC50) was 10.2 µM (active).
One may read the IC50 as the concentration at which inhibition is half-maximal. In general, EC50 refers to the concentration needed to bring the measured effect to its halfway point. Turning to `CCC1=Nc2ccc(Br)cc2C(c2ccccc2)N1CC(=O)OC` (centres undefined), the 50% inhibitory concentration (IC50) in data set [2] is recorded as 13.2 µM (not active); in [4], > 35 µM (not active). Moreover, the EC50 in data set [3] is 14.3 µM (active).
One may read the Ki as a dissociation constant, usually derived from enzyme kinetics or from competition with a known ligand. Turning to `COc1ccc(-c2cc(-c3ccccc3)nc3ncnc(NC(=O)COCC(=O)O)c23)cc1`, the Ki (in data set [5]; on Aurora kinase B) was 1.26 µM (active) each time.
`Cn1c(SCc2nnc(-c3ccc(F)cc3)o2)nnc1C1COc2ccccc2O1` (centres undefined): the concentration at half-maximal activity (AC50) result at Cytochrome P450 2C9 was “inconclusive”; on Cytochrome P450 2D6, 5.01 µM (inconclusive); in data set [6], 0.7 µM (active); in [7], 1.33 µM (active).
Consider `Cc1ccc(-c2cc(CNC(=O)C(=O)c3c[nH]c4ccccc34)no2)cc1`, for which the IC50 (at Caspase-3; in [8]; in [9]; in data set [10]) was > 99 µM (inactive) each time.
